Our source for the AC50 values is US20230104936A1, “TRPML MODULATORS” (Casma Therapeutics, Inc., priority 2019, published 2023).

The AC50 is the midpoint of the concentration-response curve, whichever way the signal moves.

The assay concerns TFEB. Nature of the assay: TFEB nuclear translocation assay, HeLa wt cells. As to conditions: Homo sapiens, HeLa, 2 h, 2 hrs compound treatment, Table 1 does not say HeLa wt or TRPML1 KO. Type of assay: cell-based. In short, it runs like this: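 AC50 derived from the ratio of nuclear to perinuclear ring (−5 μm) anti-TFEB immunofluorescence, imaged at ×20 over four fields per well. HeLa wt or TRPML1 KO cells were exposed to compounds for 2 hrs at 37° C, then PFA-fixed and counterstained with Hoechst.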
As for `CC(C)(C)C(=O)N1CCN(c2ccccc2NS(=O)(=O)C2CCc3ccccc3C2)CC1` (stereo not shown) [Compound A-583, N-{2-[4-(2,2-dimethylpropanoyl)piperazin-1-yl]phenyl}-1,2,3,4-tetrahydronaphthalene-2-sulfonamide], the AC50 was ≥ 10 µM.

As to `CN(C)S(=O)(=O)c1ccc(S(=O)(=O)Nc2ccccc2N2CCC3(CCCO3)CC2)cc1` [Compound A-584, N1,N1-dimethyl-N4-(2-{1-oxa-8-azaspiro[4.5]decan-8-yl}phenyl)benzene-1,4-disulfonamide], the concentration at half-maximal activity (AC50) was ≤ 2 µM.

On to `CN(C)S(=O)(=O)c1ccc(S(=O)(=O)Nc2ccccc2N2CCC(C(F)F)CC2)cc1` [Compound A-585, N4-{2-[4-(difluoromethyl)piperidin-1-yl]phenyl}-N1,N1-dimethylbenzene-1,4-disulfonamide], for which the half-maximal activity concentration (AC50) is ≤ 2 µM.

Regarding `COCC1(C)CCN(c2ccccc2NS(=O)(=O)Cc2cccc(S(C)(=O)=O)c2)CC1` [Compound A-586, l-(3-methanesulfonylphenyl)-N-{2-[4-(methoxymethyl)-4-methylpiperidin-1-yl]phenyl}methanesulfonamide], the concentration at half-maximal activity (AC50) lay in the range of 8.01 to 9.99 µM.

The molecule `COCCOCCOCCN(C)S(=O)(=O)c1ccc(S(=O)(=O)Nc2ccccc2N2CCC(c3ccc(Cl)cc3F)CC2)cc1` [Compound A-587, N4-{2-[4-(4-chloro-2-fluorophenyl)piperidin-1-yl]phenyl}-N1-{2-[2-(2-methoxyethoxy)ethoxy]ethyl}-N1-methylbenzene-1,4-disulfonamide] showed a concentration at half-maximal activity (AC50) of 2.01 to 8 µM.

In the case of `COCCOCCOCCOc1ccc(S(=O)(=O)Nc2ccccc2N2CCC(c3ccc(Cl)cc3F)CC2)cc1` [Compound A-588, N-{2-[4-(4-chloro-2-fluorophenyl)piperidin-1-yl]phenyl}-4-{2-[2-(2-methoxyethoxy)ethoxy]ethoxy}benzene-1-sulfonamide], the concentration at half-maximal activity (AC50) was ≤ 2 µM.

Turning to `CC(C)(C)C(=O)N1CCN(c2ccccc2NS(=O)(=O)c2ccc(C(C)(F)F)cc2)CC1` [Compound A-590, 4-(1,1-difluoroethyl)-N-{2-[4-(2,2-dimethylpropanoyl)piperazin-1-yl]phenyl}benzene-1-sulfonamide], the AC50 lay within 2.01 to 8 µM.

For `CC(C)(C)C(=O)N1CCN(c2ccccc2NS(=O)(=O)c2ccc(OCC(F)(F)F)cc2)CC1` [Compound A-591, N-{2-[4-(2,2-dimethylpropanoyl)piperazin-1-yl]phenyl}-4-(2,2,2-trifluoroethoxy)benzene-1-sulfonamide], the AC50 is ≥ 10 µM.

In the case of `COCC1(C)CCN(c2ccccc2NS(=O)(=O)Cc2ccccc2C)CC1` [Compound A-592, N-{2-[4-(methoxymethyl)-4-methylpiperidin-1-yl]phenyl}-1-(2-methylphenyl)methanesulfonamide], the AC50 was 8.01 to 9.99 µM.

Molecule `COCC1(C)CCN(c2ccccc2NS(=O)(=O)Cc2cccc(C)c2)CC1` [Compound A-593, N-{2-[4-(methoxymethyl)-4-methylpiperidin-1-yl]phenyl}-1-(3-methylphenyl)methanesulfonamide] gave an AC50 of 2.01 to 8 µM.

Take `COCC1(C)CCN(c2ccccc2NS(=O)(=O)Cc2cccc(F)c2)CC1` [Compound A-594, 1-(3-fluorophenyl)-N-{2-[4-(methoxymethyl)-4-methylpiperidin-1-yl]phenyl}methanesulfonamide]: the AC50 was 2.01 to 8 µM.

`COCC1(C)CCN(c2ccccc2NS(=O)(=O)Cc2ccccc2OC)CC1` [Compound A-595, N-{2-[4-(methoxymethyl)-4-methylpiperidin-1-yl]phenyl}-1-(2-methoxyphenyl)methanesulfonamide] showed a concentration at half-maximal activity (AC50) of 2.01 to 8 µM.

`COCC1(C)CCN(c2ccccc2NS(=O)(=O)Cc2cccc(OC)c2)CC1` [Compound A-596, N-{2-[4-(methoxymethyl)-4-methylpiperidin-1-yl]phenyl}-1-(3-methoxyphenyl)methanesulfonamide]: the concentration at half-maximal activity (AC50) lay within 2.01 to 8 µM.

Molecule `COCC1(C)CCN(c2ccccc2NS(=O)(=O)C2CCc3ccccc32)CC1` (stereo not shown) [Compound A-597, N-{2-[4-(methoxymethyl)-4-methylpiperidin-1-yl]phenyl}-2,3-dihydro-1H-indene-1-sulfonamide] showed an AC50 of 8.01 to 9.99 µM.

As to `CN(C)S(=O)(=O)c1ccc(S(=O)(=O)Cc2ccccc2N2CCN(C(=O)OCc3ccccc3)CC2)cc1` [Compound A-598, benzyl 4-(2-{[4-(dimethylsulfamoyl)benzenesulfonyl]methyl}phenyl)piperazine-1-carboxylate], the AC50 is ≤ 2 µM.

As to `CC(C)CN1CCN(c2ccccc2CS(=O)(=O)c2ccc(S(=O)(=O)N(C)C)cc2)CC1` [Compound A-599, N,N-dimethyl-4-({2-[4-(2-methylpropyl)piperazin-1-yl]phenyl}methanesulfonyl)benzene-1-sulfonamide], the half-maximal activity concentration (AC50) lay in the range of 2.01 to 8 µM.

For the molecule `Cc1nc2ccc(S(=O)(=O)Nc3ccccc3N3CCN(C(=O)C(C)(C)C)CC3)cc2s1` [Compound A-600, N-{2-[4-(2,2-dimethylpropanoyl)piperazin-1-yl]phenyl}-2-methyl-1,3-benzothiazole-6-sulfonamide], the AC50 is ≥ 10 µM.

`COCC1(C)CCN(c2ccccc2NS(=O)(=O)Cc2ccccc2Cl)CC1` [Compound A-601, 1-(2-chlorophenyl)-N-{2-[4-(methoxymethyl)-4-methylpiperidin-1-yl]phenyl}methanesulfonamide] had an AC50 of 2.01 to 8 µM.

Molecule `COCC1(C)CCN(c2ccccc2NS(=O)(=O)Cc2cccc(Cl)c2)CC1` [Compound A-602, 1-(3-chlorophenyl)-N-{2-[4-(methoxymethyl)-4-methylpiperidin-1-yl]phenyl}methanesulfonamide] showed a concentration at half-maximal activity (AC50) of 2.01 to 8 µM.

In turn, `CC(c1ccccc1N1CCN(C2COC2)CC1)S(=O)(=O)c1ccc(S(=O)(=O)N(C)C)cc1` (stereo not shown) [Compound A-603, N,N-dimethyl-4-(1-{2-[4-(oxetan-3-yl)piperazin-1-yl]phenyl}ethanesulfonyl)benzene-1-sulfonamide] displayed an AC50 of 2.01 to 8 µM.

As for `CC(C)CN1CCN(c2ccccc2C(C)S(=O)(=O)c2ccc(S(=O)(=O)N(C)C)cc2)CC1` (stereo not shown) [Compound A-604, N,N-dimethyl-4-(1-{2-[4-(2-methylpropyl)piperazin-1-yl]phenyl}ethanesulfonyl)benzene-1-sulfonamide], the AC50 was ≤ 2 µM.

With `CN(C)S(=O)(=O)c1ccc(S(=O)(=O)Nc2cc(F)ccc2N2CCC3(CC2)COC(C)(C)C3)cc1` [Compound A-605, N4-(2-{3,3-dimethyl-2-oxa-8-azaspiro[4.5]decan-8-yl}-5-fluorophenyl)-N1,N1-dimethylbenzene-1,4-disulfonamide], the concentration at half-maximal activity (AC50) is ≤ 2 µM.

As for `CN(C)S(=O)(=O)c1ccc(S(=O)(=O)Nc2ccc(F)cc2N2CCC3(CC2)COC(C)(C)C3)cc1` [Compound A-606, N4-(2-{3,3-dimethyl-2-oxa-8-azaspiro[4.5]decan-8-yl}-4-fluorophenyl)-N1,N1-dimethylbenzene-1,4-disulfonamide], the concentration at half-maximal activity (AC50) lay within 2.01 to 8 µM.

Consider `COCC1(C)CCN(c2ccccc2NS(=O)(=O)Cc2cccc3c2COC3)CC1` [Compound A-607, 1-(1,3-dihydro-2-benzofuran-4-yl)-N-{2-[4-(methoxymethyl)-4-methylpiperidin-1-yl]phenyl}methanesulfonamide], for which the AC50 is 2.01 to 8 µM.

As to `COCC1(C)CCN(c2ccccc2NS(=O)(=O)c2ccc3c(c2)CCC3)CC1` [Compound A-608, N-{2-[4-(methoxymethyl)-4-methylpiperidin-1-yl]phenyl}-2,3-dihydro-1H-indene-5-sulfonamide], the AC50 is ≤ 2 µM.

`COc1ccc(N2CCOCC2)c(NS(=O)(=O)Cc2ccc3c(c2)COCC3)c1` [Compound A-609, 1-(3,4-dihydro-1H-2-benzopyran-7-yl)-N-[5-methoxy-2-(morpholin-4-yl)phenyl]methanesulfonamide]: the AC50 is 8.01 to 9.99 µM.

`COCC1(C)CCN(c2ccccc2NS(=O)(=O)Cc2ccccc2C#N)CC1` [Compound A-610, 1-(2-cyanophenyl)-N-{2-[4-(methoxymethyl)-4-methylpiperidin-1-yl]phenyl}methanesulfonamide] returned an AC50 of 2.01 to 8 µM.

As for `COCCC1CCN(c2ccccc2NS(=O)(=O)c2ccc(S(=O)(=O)N(C)C)cc2)CC1` [Compound A-611, N4-{2-[4-(2-methoxyethyl)piperidin-1-yl]phenyl}-N1,N1-dimethylbenzene-1,4-disulfonamide], the concentration at half-maximal activity (AC50) is ≤ 2 µM.

For `COCC1(C)CCN(c2ccccc2NS(=O)(=O)Cc2ccc3c(c2)COC3)CC1` [Compound A-612, 1-(1,3-dihydro-2-benzofuran-5-yl)-N-{2-[4-(methoxymethyl)-4-methylpiperidin-1-yl]phenyl}methanesulfonamide], the concentration at half-maximal activity (AC50) was 2.01 to 8 µM.

As for `COCC1(C)CCN(c2ccccc2NS(=O)(=O)c2ccc3c(c2)CC(C)(C)O3)CC1` [Compound A-613, N-{2-[4-(methoxymethyl)-4-methylpiperidin-1-yl]phenyl}-2,2-dimethyl-2,3-dihydro-1-benzofuran-5-sulfonamide], the AC50 was ≤ 2 µM.

On to `COCC1CCN(c2ccccc2NS(=O)(=O)c2ccc3c(c2)CC(C)(C)O3)CC1` [Compound A-614, N-{2-[4-(methoxymethyl)piperidin-1-yl]phenyl}-2,2-dimethyl-2,3-dihydro-1-benzofuran-5-sulfonamide], for which the AC50 was ≤ 2 µM.

For the molecule `CN(C)S(=O)(=O)c1ccc(S(=O)(=O)Nc2cccc(F)c2N2CCC3(CC2)COC(C)(C)C3)cc1` [Compound A-615], the AC50 was ≤ 2 µM.

`COCC1(C)CCN(c2ccccc2NS(=O)(=O)c2ccc(F)c(C)c2)CC1` [Compound A-616, 4-fluoro-N-{2-[4-(methoxymethyl)-4-methylpiperidin-1-yl]phenyl}-3-methylbenzene-1-sulfonamide] displayed an AC50 of 2.01 to 8 µM.

The molecule `COCC1(C)CCN(c2ccccc2NS(=O)(=O)c2ccc(C)c(F)c2)CC1` [Compound A-617, 3-fluoro-N-{2-[4-(methoxymethyl)-4-methylpiperidin-1-yl]phenyl}-4-methylbenzene-1-sulfonamide] displayed a concentration at half-maximal activity (AC50) of 2.01 to 8 µM.
